Experimental data published in the NIST ThermoML archive (doi:10.1021/je201354k).
Numbers after ± are expanded uncertainties.

How the values were obtained:
[1] = Crystal; DTA
[2] = Molar enthalpy of transition or fusion; settings: Crystal; DSC

Triple point temperature [1]: 556.15 ± 0.5 K
Molar enthalpy of transition or fusion [2]: 4.41 ± 0.136 kcal/mol
SMILES: N[C@@H](Cc1ccccc1)C(=O)O [L-phenylalanine]
